Source: patent publication US20260234651A1, “ACETYL-COA CARBOXYLASE INHIBITOR RESISTANT SORGHUM” (PIONEER HI-BRED INTERNATIONAL, INC., priority 2023, published 2026)

Assays:
Format in all cases: in vivo, Sorghum bicolor
wild-type control plants = experiment: Spray test of T1 plants with quizalofop-p-ethyl; details: 7 fl. ounce (0.034-0.083 lb ai), all died
From the text: (§1) ACCase edited T1 seeds were planted in flats, all seeds germinated and were heathy looking. Additionally, they were all able to produce T2 seeds with high seed count setting. Nineteen homozygous ACCase edited T1 plants at the 8-leaf stage were sprayed with quizalofop-p-ethyl at a rate of 7 fl. ounce (0.034-0.083 lb ai), which is the average dose from the Assure II label. […] A subset of the T1 plants after the spray test were kept to maturity and all produced T2 seeds with good seed setting. In contrast, the wild-type control plants were all susceptible to the quizalofop-p-ethyl spray and died.

[1] = tested on: homozygous ACCase edited T1 plants; experiment: Spray test of T1 plants with quizalofop-p-ethyl; details: all 19 homozygous ACCase edited T1 plants, 8-leaf stage, 7 fl. ounce (0.034-0.083 lb ai)
From the text: as §1

[2] = tested on: three F1 hybrids with a single copy of the W2032C ACCase edit; experiment: Field tolerance test, summary in words; details: 1x or 2x Assure II
Method: (§2) The ACCase edited plants generated in Example 1 were outcrossed with 3 male sterile lines in a controlled environment. The F1 plants which contain a single copy of the W2032C edit in the ACCase gene and the edited elite inbred line containing 2 copies of the W2032C ACCase (hereinafter referred to as […]) along with the non-edited elite inbred (wt control) and the 3 male sterile lines were tested in the field for efficacy. Four short rows, each row with ~100 seedlings, were planted for each variety in replicate. Once the plants reached the 5-6 leaves stage, replicate 1 for each variety was treated with a 1× dose of Assure II (Quizalofop-P-ethyl) and replicate 2 for each variety was treated with a 2× dose of Assure II (Quizalofop-P-ethyl). Plants were then scored for tolerance at 7- and 14-days post application. The plots were scored by giving a 1-9 score to each plot, with 1 being dead and 9 no visible response.

[3] = tested on: control plants without the W2032C ACCase edit; experiment: Field tolerance test, summary in words; details: all plants dead at 10-14 days post spray
Method: as §2

[4] = tested on: F1 Hybrid 1_W2032C (single copy of W2032C ACCase); experiment: Field tolerance test, Quizalofop-P-ethyl (Assure II) spray; details: 1 copy, 1-9 score, 1 dead, 9 no visible response
Method: as §2
(§3) The PH2545MW_W2032C was given score of 7 with 1× dose of Quizalofop-P-ethyl application (Table 4), as some twisting of the leaves due to herbicide injury was observed, however, after a week or so the twisting of the leaves may not be visible anymore because they were growing out of it, which may be indicated by the score change from 5 to 6 at day 7 and day 14 post 2× dose of Quizalofop-P-ethyl application.

Male Sterile 3_WT = experiment: as above; details: 0 copies, 1-9 score, 1 dead, 9 no visible response
Method: as §2, §3

[5] = tested on: elite inbred_WT (non-edited elite inbred, wt control); experiment: as above; details: 0 copies W2032C, 1-9 score, 1 dead, 9 no visible response
Method: as §2, §3

Male Sterile 1_WT = experiment: as above; details: 0 copies, 1-9 score, 1 dead, 9 no visible response
Method: as §2, §3

[6] = tested on: elite inbred_W2032C (2 copies of W2032C ACCase); experiment: as above; details: for 7-day Post Application Score / 14-day Post Application Score: elite inbred_W2032C, 2 copies
Method: as §2, §3

Male Sterile 2_WT = experiment: as above; details: 0 copies, 1-9 score, 1 dead, 9 no visible response
Method: as §2, §3

[7] = tested on: F1 Hybrid 3_W2032C (single copy of W2032C ACCase); experiment: as above; details: 1 copy, 1-9 score, 1 dead, 9 no visible response
Method: as §2, §3

[8] = tested on: F1 Hybrid 2_W2032C (single copy of W2032C ACCase); experiment: as above; details: 1 copy, 1-9 score, 1 dead, 9 no visible response
Method: as §2, §3

[9] = 1x dose, 1-9 score, 1 dead, 9 no visible response
[10] = 2x dose, 1-9 score, 1 dead, 9 no visible response

**Q.** How did the “response of plants to the herbicide spray” value (wild-type control plants) turn out when CCOC(=O)[C@@H](C)Oc1ccc(Oc2cnc3cc(Cl)ccc3n2)cc1 [Quizalofop-P-ethyl] was run?
**A.** The value was “susceptible”.

**Q.** What about the “response of plants to the herbicide spray” value [1] of the same compound?
**A.** Its value is “resistance (tolerance)”.

**Q.** And the “tolerance to the herbicide in the field” value [2]?
**A.** Its value is “some tolerance”.

**Q.** And the “tolerance to the herbicide in the field” value [3]?
**A.** Its value is “no tolerance”.

**Q.** And the “7-day Post Application Score” value ([4]; 1x dose)?
**A.** Its value is 5.

**Q.** What about the “14-day Post Application Score” value ([4]; 1x dose) of the same compound?
**A.** The value was 4.

**Q.** What about the “7-day Post Application Score” value ([4]; 2x dose) of the same compound?
**A.** The value was 4.

**Q.** And the “14-day Post Application Score” value ([4]; 2x dose)?
**A.** The value was 3.

**Q.** What about the “7-day Post Application Score” value (Male Sterile 3_WT; 1x dose) of the same compound?
**A.** The value was 3.

**Q.** And the “14-day Post Application Score” value (Male Sterile 3_WT; 1x dose)?
**A.** The value was 1.

**Q.** What about the “7-day Post Application Score” value (Male Sterile 3_WT; 2x dose) of the same compound?
**A.** The value was 2.

**Q.** What about the “14-day Post Application Score” value (Male Sterile 3_WT; 2x dose) of the same compound?
**A.** The value was 1.

**Q.** And the “7-day Post Application Score” value ([5]; 1x dose)?
**A.** Its value is 3.

**Q.** And the “14-day Post Application Score” value ([5]; 1x dose)?
**A.** Its value is 1.

**Q.** And the “7-day Post Application Score” value ([5]; 2x dose)?
**A.** The value was 3.

**Q.** And the “14-day Post Application Score” value ([5]; 2x dose)?
**A.** Its value is 1.

**Q.** What about the “7-day Post Application Score” value (Male Sterile 1_WT; 1x dose) of the same compound?
**A.** The value was 2.

**Q.** What about the “14-day Post Application Score” value (Male Sterile 1_WT; 1x dose) of the same compound?
**A.** Its value is 1.

**Q.** What about the “7-day Post Application Score” value (Male Sterile 1_WT; 2x dose) of the same compound?
**A.** The value was 2.

**Q.** And the “14-day Post Application Score” value (Male Sterile 1_WT; 2x dose)?
**A.** The value was 1.

**Q.** And the “field tolerance score (day not stated)” value ([6]; PH2545MW_W2032C, 1x dose, some twisting of the leaves, 1-9 score, 1 dead, 9 no visible response)?
**A.** The value was 7.

**Q.** And the “7-day Post Application Score” value [6, 9]?
**A.** The value was 7.

**Q.** What about the “14-day Post Application Score” value [6, 9] of the same compound?
**A.** The value was 7.

**Q.** What about the “7-day Post Application Score” value [6, 10] of the same compound?
**A.** Its value is 5.

**Q.** And the “14-day Post Application Score” value [6, 10]?
**A.** The value was 6.

**Q.** What about the “tolerance to the herbicide in the field” value ([6]; inbred_W2032C plants, 1x or 2x Assure II at 5-6 leaves stage) of the same compound?
**A.** The value was “tolerance”.

**Q.** What about the “7-day Post Application Score” value (Male Sterile 2_WT; 1x dose) of the same compound?
**A.** The value was 2.

**Q.** What about the “14-day Post Application Score” value (Male Sterile 2_WT; 1x dose) of the same compound?
**A.** The value was 1.

**Q.** What about the “7-day Post Application Score” value (Male Sterile 2_WT; 2x dose) of the same compound?
**A.** The value was 2.

**Q.** What about the “14-day Post Application Score” value (Male Sterile 2_WT; 2x dose) of the same compound?
**A.** The value was 1.

**Q.** What about the “7-day Post Application Score” value ([7]; 1x dose) of the same compound?
**A.** The value was 5.

**Q.** And the “14-day Post Application Score” value ([7]; 1x dose)?
**A.** Its value is 3.

**Q.** And the “7-day Post Application Score” value ([7]; 2x dose)?
**A.** The value was 5.

**Q.** What about the “14-day Post Application Score” value ([7]; 2x dose) of the same compound?
**A.** Its value is 4.

**Q.** And the “7-day Post Application Score” value ([8]; 1x dose)?
**A.** The value was 5.

**Q.** What about the “14-day Post Application Score” value ([8]; 1x dose) of the same compound?
**A.** The value was 4.

**Q.** And the “7-day Post Application Score” value ([8]; 2x dose)?
**A.** The value was 5.

**Q.** What about the “14-day Post Application Score” value ([8]; 2x dose) of the same compound?
**A.** The value was 3.
